Test results taken from paper PMC3976273, “Three Amino Acid Residues Bind Corn Odorants to McinOBP1 in the Polyembryonic Endoparasitoid of Macrocentrus cingulum Brischke” (PLoS ONE, 2014).
Positions count from the first letter of the chain named. Several values for one entry are separate records, joined by “and”; a condition that tells them apart may be missing. Equal entries are not always repeated. Entries after “also recorded” stand apart in the source; their conditions may differ. Where two headings read alike, the source gives them in different places.

What was measured:
[1] = target: T1, McinOBP1-wt (Macrocentrus cingulum, UniProt X2D9T4); test: Competitive fluorescence binding assay, displacement of 1-NPN; conditions: for binding to McinOBP1-wt (in words): displacement of 1-NPN
T1 sequence (X2D9T4 entry or part of it): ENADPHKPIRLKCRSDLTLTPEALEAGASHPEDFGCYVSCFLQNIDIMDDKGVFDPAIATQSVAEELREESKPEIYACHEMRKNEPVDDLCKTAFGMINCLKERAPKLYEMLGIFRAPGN
Description: (§1) Fluorescence binding assays were recorded on Shimadzu fluorescence spectrophotometer (Shimadzu, Japan) with a 1 cm light path quartz cuvette; both excitation and emission silts widths were 5 nm. The probe was excited at 337 nm and emission spectra were recorded between 350 and 500 nm. […] For determining the bound ligand from the intensity values of fluorescence emission assuming that the proteins were 100% active, with a stoichiometry of 1∶1 (protein:ligand) at saturation. The GraphPad Prism 5 (GraphPad Software, Inc.) was used to estimate the K1–NPN (KD of protein complex/1-NPN) values by nonlinear regression for a unique site of binding. Scatchard plots were used to linearize the curves.

[2] = target: T2, McinOBP1-m3 (Glu130 to alanine) (Macrocentrus cingulum, UniProt X2D9T4, E130A); test: as above
T2 sequence (X2D9T4 21-140 E130A): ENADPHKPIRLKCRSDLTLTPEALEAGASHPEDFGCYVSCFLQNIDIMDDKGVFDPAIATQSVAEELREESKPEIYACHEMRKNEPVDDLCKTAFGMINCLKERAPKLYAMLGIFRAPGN
Excerpt: (§2) The three mutants of McinOBP1, m1 (mutation of amino acid, valine to alanine at 58 position), m2 (mutation of amino acid, leucine to proline at 62 position) and m3 (mutation of amino acid, glutamic to alanine at 130 position), were developed using the kit of Quick-change lightning site-directed mutagenesis (Stratagene, La Jolla, CA, USA). The McinOBP1-wt/pGEM-T Easy construct was used as a template. The primers were designed manually and mutation sites are underlined as listed below.
as §1

[3] = target: T3, McinOBP1-m1 (Val58 to alanine) (Macrocentrus cingulum, UniProt X2D9T4, V58A); test: as above
T3 sequence (X2D9T4 21-140 V58A): T2 sequence (X2D9T4 21-140 E130A) with V38A, A110E
Excerpt: as §2, §1

[4] = target: T4, McinOBP1-m2 (Leu62 to proline) (Macrocentrus cingulum, UniProt X2D9T4, L62P); test: as above
T4 sequence (X2D9T4 21-140 L62P): T2 sequence (X2D9T4 21-140 E130A) with L42P, A110E
Excerpt: as §2, §1

[5] = target: T2, McinOBP1-m3 (Glu130 to alanine); test: Fluorescence binding of the probe 1-NPN (direct titration); conditions: 2 μM protein, pH 7.4
Excerpt: as §2, §1

[6] = target: T3, McinOBP1-m1 (Val58 to alanine); test: as above; conditions: 2 μM protein, pH 7.4
Excerpt: as §2, §1

[7] = target: T4, McinOBP1-m2 (Leu62 to proline); test: as above; conditions: 2 μM protein, pH 7.4
Excerpt: as §2, §1

[8] = target: T1, McinOBP1-wt; test: as above; conditions: dissociation constant (KD) of 1-NPN, 2 μM protein, 50 mM Tris-HCl pH 7.4
Description: as §1

[9] = McinOBP1-wt, pH 7.4, calculated from IC50 and K1-NPN, read-out: KD (calculated dissociation constant)
[10] = read-out: IC50 (ligand concentration displacing 50% of the fluorescence of the McinOBP1/1-NPN complex), McinOBP1-wt, pH 7.4, 2 μM 1-NPN
[11] = McinOBP1-wt, pH 7.4, 2 μM 1-NPN
[12] = McinOBP1-wt, pH 7.4, 2 μM 1-NPN, read-out: IC50 (given as dash)

Q: `CC(=O)/C=C/C1=C(C)CCCC1(C)C` [β-Ionone] was tested. Which IC50 [1] did it give?
A: The IC50 was 10.3 µM.

Q: What about the Kd [1] of the same compound?
A: Its Kd is 8.97 µM.

Q: `C=C(C)[C@H]1CC=C(C)CC1` [Limonene] was tested. Which Kd [1, 9] did it give?
A: The Kd was 18.3 µM.

Q: And the IC50 [1, 10]?
A: Its IC50 is 21.1 µM.

Q: For `CCCCCc1ccco1` [2-Pentylfuran], which IC50 [1, 11] is on record?
A: The IC50 was 19.1 µM.

Q: And the Kd [1, 9]?
A: The Kd was 16.6 µM.

Q: What does the source list for `CC/C=C\CCO` [Cis-3-Hexen-1-ol]?
A: IC50 [1]: 4.61 µM; Kd [1]: 4 µM; IC50 [2]: 29.5 µM; Kd ([2]; KD, McinOBP1-m3): 25.6 µM; IC50 [3]: 23.6 µM; Kd [3]: 22.1 µM; IC50 [4]: 26.1 µM; Kd [4]: 24.3 µM

Q: For `C=CC(C)(O)CCC=C(C)C` (centres unmarked) [Linalool], which IC50 [1] is on record?
A: Its IC50 is 18.6 µM.

Q: And the Kd [1]?
A: The Kd was 16.2 µM.

Q: How did the IC50 [1] turn out when `CCCCCC/C=C/C=O` [Trans-2-Nonenal] was run?
A: The IC50 was 3.4 µM.

Q: And the Kd [1]?
A: The Kd was 2.96 µM.

Q: What about the IC50 [2] of the same compound?
A: Its IC50 is 76.7 µM.

Q: What about the Kd ([2]; KD, McinOBP1-m3) of the same compound?
A: Its Kd is 66.5 µM.

Q: What about the IC50 [3] of the same compound?
A: Its IC50 is 13.6 µM.

Q: What about the Kd [3] of the same compound?
A: Its Kd is 12.7 µM.

Q: And the IC50 [4]?
A: Its IC50 is 50.6 µM.

Q: And the Kd [4]?
A: Its Kd is 47.2 µM.

Q: How did the “binding to McinOBP1-wt (in words)” value ([1]; McinOBP1-wt) turn out when `CCCCCCCCCCC=O` [Undecanal] was run?
A: Its value is “did not bind; also recorded: no binding affinity”.

Q: What about the IC50 [1, 12] of the same compound?
A: The IC50 was over 50 µM.

Q: Which results are given for `CC1=CCC2CC1C2(C)C` (stereo not drawn) [α-pinene]?
A: IC50 [1]: 17.8 µM; Kd [1]: 15.5 µM

Q: With `c1ccc(Nc2cccc3ccccc23)cc1` [1-NPN, N-phenyl-1-naphthylamine] as the compound, how does the Kd [5] read?
A: Its Kd is 6.53 ± 0.5 µM.

Q: What about the Kd [6] of the same compound?
A: Its Kd is 14.6 ± 1.07 µM.

Q: What about the Kd [7] of the same compound?
A: Its Kd is 13.7 ± 0.71 µM.

Q: What about the Kd [8] of the same compound?
A: Its Kd is ~6.6 µM and 6.6 µM.

Q: How did the Kd [1, 9] turn out when `CC/C=C\CCOC(C)=O` [cis-3-hexenyl acetate] was run?
A: The Kd was 10.3 ± 0.71 µM.

Q: Which Kd [1, 9] does the source give for `CC/C=C/CCOC(C)=O` [Trans-3-Hexen-1-ol-Acetate] here?
A: The Kd was 20.7 µM.

Q: What about the IC50 [1, 10] of the same compound?
A: Its IC50 is 23.9 µM.

Q: What does the source list for `CCCCCCCCCC=O` [Decanal]?
A: binding to McinOBP1-wt (in words) ([1]; McinOBP1-wt): did not bind; binding to McinOBP1-wt (in words) ([1]; McinOBP1-wt, listed as decanal): no binding affinity; IC50 [1, 12]: > 50 µM

Q: How did the Kd [1, 9] turn out when Hexenal was run?
A: The Kd was 16.4 µM.

Q: What about the IC50 [1, 10] of the same compound?
A: The IC50 was 18.9 µM.

Q: For `CC(=O)/C=C/C1C(C)=CCCC1(C)C` (stereo not drawn) [α-Ionone], which IC50 [1] is on record?
A: Its IC50 is 12.1 µM.

Q: And the Kd [1]?
A: Its Kd is 9.3 ± 0.38 µM.

Q: For `C=C1CCC2CC1C2(C)C` (stereo not drawn) [β-Pinene], which IC50 [1] is on record?
A: Its IC50 is 12.7 µM.

Q: And the Kd [1]?
A: Its Kd is 10.8 µM.

Q: For `O=Cc1ccccc1` [Benzaldehyde], which IC50 [1] is on record?
A: The IC50 was 17.9 µM.

Q: What about the Kd [1] of the same compound?
A: The Kd was 15.6 µM.

Q: Which IC50 [1, 11] does the source give for `CCCCCCC=O` [Heptanal] here?
A: The IC50 was 35.5 µM.

Q: And the Kd [1, 9]?
A: The Kd was 30.9 µM.

Q: With Farnsene as the compound, how does the Kd [1, 9] read?
A: The Kd was 8.93 µM.

Q: What about the IC50 [1, 10] of the same compound?
A: Its IC50 is 10.3 µM.

Q: How did the Kd [1, 9] turn out when `C=CC(=C)CC/C=C(\C)CCC=C(C)C` [β-Farnesene] was run?
A: Its Kd is 24.8 µM.

Q: And the IC50 [1, 10]?
A: The IC50 was 28.5 µM.

Q: `CCC(C)CCCC(C)C` (centres unmarked) [2,6 dimethyl octane] was tested. Which “binding to McinOBP1-wt (in words)” value ([1]; McinOBP1-wt) did it give?
A: Its value is “no binding affinity”.

Q: What about the “binding to McinOBP1-wt (in words)” value ([1]; McinOBP1-wt, listed as 2, 6 dimethyl octane) of the same compound?
A: Its value is “did not bind”.

Q: And the IC50 [1, 12]?
A: Its IC50 is over 50 µM.

Q: `CCCCC/C=C/C=O` [Trans-2-Octenal] was tested. Which IC50 [1, 11] did it give?
A: Its IC50 is 15.7 µM.

Q: What about the Kd [1, 9] of the same compound?
A: The Kd was 13.6 µM.

Q: What does the source list for `CCCCCCCCC=O` [Nonanal]?
A: IC50 [1, 11]: 19.6 µM; Kd [1, 9]: 17 µM

Q: With `C=C1CC/C=C(\C)CC[C@@H]2[C@@H]1CC2(C)C` [Trans-Caryophelle, β- Caryophelle] as the compound, how does the Kd [1, 9] read?
A: Its Kd is 6.53 µM.

Q: What about the IC50 [1, 10] of the same compound?
A: The IC50 was 7.51 µM.

Q: And the Kd ([2]; McinOBP1-m3, listed as trans-caryophelle, read-out: KD)?
A: The Kd was 41.4 ± 5.38 µM.

Q: And the IC50 ([2]; McinOBP1-m3, read-out: IC50)?
A: The IC50 was 47.8 µM.

Q: What about the Kd ([2]; McinOBP1-m3, read-out: KD) of the same compound?
A: The Kd was 41.4 µM.

Q: What about the IC50 ([3]; McinOBP1-m1, read-out: IC50) of the same compound?
A: The IC50 was 70.7 µM.

Q: What about the Kd ([3]; McinOBP1-m1, read-out: KD) of the same compound?
A: Its Kd is 66.2 µM.

Q: What about the IC50 ([4]; McinOBP1-m2, read-out: IC50) of the same compound?
A: Its IC50 is 45 µM.

Q: What about the Kd ([4]; McinOBP1-m2, read-out: KD) of the same compound?
A: The Kd was 42 µM.
